This experiment has as its target T1, recombinant human Flag-tagged PARP7 (amino acids 456-657) (Homo sapiens, UniProt Q7Z3E1).
T1 construct: recombinant human Flag-tagged PARP7 (amino acids 456-657)
T1 sequence (Q7Z3E1 456-657): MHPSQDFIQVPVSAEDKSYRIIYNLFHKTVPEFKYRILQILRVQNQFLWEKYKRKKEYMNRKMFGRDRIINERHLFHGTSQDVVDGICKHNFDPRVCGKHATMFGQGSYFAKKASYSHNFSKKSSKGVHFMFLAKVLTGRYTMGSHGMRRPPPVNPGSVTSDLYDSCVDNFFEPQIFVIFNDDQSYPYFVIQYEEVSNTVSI
Put plainly: PARP7 biochemical DELFIA assay (auto-MARylation). The note with it: DELFIA readout, IC50 class. In outline: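 Flag-PARP7 (456-657), 12.5-37.5 nM stock, captured on anti-FLAG wells, preincubated 30 min with compound, then auto-MARylated with biotin-NAD+ (15 μM stock) in HEPES pH 7.5/NaCl/DTT/BSA/Tween for 2-3 h at room temperature. NAD+ quench; Eu-streptavidin DELFIA read, Ex337/Em620 nm.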

As usually defined, the IC50 is the concentration needed to halve the response being measured. Turning to `O=C(CCOCCc1cccc2c(=O)[nH]cnc12)N1CCN(c2ncc(C(F)(F)F)cn2)CC1` [Compound 16], the IC50 was 100 to 1000 nM.
On to `O=C(COCCNc1cccc2c(=O)[nH]cnc12)N1CCN(c2ncc(C(F)(F)F)cn2)CC1` [Compound 17], for which the 50% inhibitory concentration (IC50) fell in the range of 1000 to 10000 nM.
The figure for `N#Cc1ccc(N2CCN(C(=O)c3cccc(Cc4cccc5c(=O)[nH]c(=O)[nH]c45)c3)CC2)nc1` [Compound 18] is 100 to 1000 nM.
With `O=C(c1cccc(Cc2cccc3c(=O)[nH]c(=O)[nH]c23)c1)N1CCN(C(=O)C2CC2)CC1` [Compound 19], the IC50 lay in the range of 1000 to 10000 nM.
With `N#Cc1ccc(N2CCN(C(=O)c3cccc(Cc4cccc5c4CCNC5=O)c3)CC2)nc1` [Compound 20], the IC50 was 100 to 1000 nM.
For the molecule `O=C1NCCc2c(Cc3cccc(C(=O)N4CCN(C(=O)C5CC5)CC4)c3)cccc21` [Compound 21], the half-maximal inhibitory concentration (IC50) lay within 1000 to 10000 nM.
Next, `O=C1NCCc2c(OCCOCC(=O)N3CCN(c4ncc(C(F)(F)F)cn4)CC3)cccc21` [Compound 22]: 1000 to 10000 nM; `O=C1NCCc2c(CCOCCC(=O)N3CCN(c4ncc(C(F)(F)F)cn4)CC3)cccc21` [Compound 23]: 100 to 1000 nM; `N#Cc1ccc(N2CCN(C(=O)c3cccc(Cn4ncc5c(=O)[nH]ncc54)c3)CC2)nc1` [Compound 24]: 100 to 1000 nM.
Next, `O=C(c1cccc(Cc2cccc3c(=O)[nH]ncc23)c1)N1CCN(c2ncc(C(F)(F)F)cn2)CC1` [Compound 25]: at most 100 nM.
`N#Cc1ccc(N2CCN(C(=O)c3cccc(Cc4cccc5c(=O)[nH]ncc45)c3)CC2)cc1` [Compound 26]: the IC50 lay within 1000 to 10000 nM.
Consider `O=C(c1cccc(Cc2cccc3c(=O)[nH]ncc23)c1)N1CCN(c2ccccc2)CC1` [Compound 27], for which the IC50 lay within 1000 to 10000 nM.
Next, `N#Cc1ccc(N2CCCN(C(=O)c3cccc(Cc4cccc5c(=O)[nH]ncc45)c3)CC2)nc1` [Compound 28]: 100 to 1000 nM.
Next, `N#Cc1ccc(N2CCN(C(=O)c3cccc(Oc4cccc5c(=O)[nH]ncc45)c3)CC2)nc1` [Compound 29]: 100 to 1000 nM; `N#Cc1ccc(N2CCN(C(=O)c3cccc(Nc4cccc5c(=O)[nH]ncc45)c3)CC2)nc1` [Compound 30]: at most 100 nM.
The figure for `N#Cc1ccc(N2CCN(C(=O)c3ccc(Cc4cccc5c(=O)[nH]ncc45)cc3)CC2)nc1` [Compound 32] is 1000 to 10000 nM.
As for `CC(C)(COCC(=O)N1CCN(c2ncc(C(F)(F)F)cn2)CC1)Oc1cccc2c(=O)[nH]ncc12` [Compound 34], the IC50 is 1000 to 10000 nM.
The figure for `O=C(CCCCOc1cccc2c(=O)[nH]ncc12)N1CCN(c2ncc(C(F)(F)F)cn2)CC1` [Compound 35] is 100 to 1000 nM; for `O=C(NCCCOc1cccc2c(=O)[nH]ncc12)N1CCN(c2ncc(C(F)(F)F)cn2)CC1` [Compound 36] it is 1000 to 10000 nM; for `O=C(CCCOc1cccc2c(=O)[nH]ncc12)N1CCN(c2ncc(C(F)(F)F)cn2)CC1` [Compound 37] it is 1000 to 10000 nM.
The figure for `N#Cc1ccc(N2CCN(C(=O)Cc3cccc(Cc4cccc5c(=O)[nH]ncc45)c3)CC2)nc1` [Compound 38] is 1000 to 10000 nM; for `N#Cc1ccc(N2CCN(S(=O)(=O)c3cccc(Cc4cccc5c(=O)[nH]ncc45)c3)CC2)nc1` [Compound 39] it is 1000 to 10000 nM; for `N#Cc1ccc(N2CCN(C(=O)c3cccc(COc4cccc5c(=O)[nH]ncc45)c3)CC2)nc1` [Compound 40] it is 100 to 1000 nM.
With `N#Cc1ccc(N2CCN(C(=O)c3ccc(COc4cccc5c(=O)[nH]ncc45)cc3)CC2)nc1` [Compound 41], the IC50 lay within 1000 to 10000 nM.
As to `N#Cc1ccc(N2CCN(C(=O)c3cccc(OCCc4cccc5c(=O)[nH]ncc45)c3)CC2)nc1` [Compound 42], the IC50 is at most 100 nM.
In the case of `CN(CCOCC(=O)N1CCN(c2ncc(C(F)(F)F)cn2)CC1)c1cccc2c(=O)[nH]ncc12` [Compound 43], the half-inhibitory concentration (IC50) lay in the range of 100 to 1000 nM.
The figure for `N#Cc1ccc(N2CCN(C(=O)CCOCCN3CCCc4c3cn[nH]c4=O)CC2)nc1` [Compound 44] is at most 100 nM.
Take `O=C(CCOCCc1cccc2c(=O)[nH]c(=O)[nH]c12)N1CCN(c2ncc(C(F)(F)F)cn2)CC1` [Compound 45]: the IC50 was at most 100 nM.
Take `N#Cc1ccc(N2CCN(C(=O)c3cccc(Cc4cccc5c4NCNC5=O)c3)CC2)nc1` [Compound 46]: the half-maximal inhibitory concentration (IC50) was in the range of 100 to 1000 nM.
As for `O=C1NCNc2c(OCCOCC(=O)N3CCN(c4ncc(C(F)(F)F)cn4)CC3)cccc21` [Compound 47], the IC50 lay within 1000 to 10000 nM.
The figure for `O=C1NCNc2c(CCOCCC(=O)N3CCN(c4ncc(C(F)(F)F)cn4)CC3)cccc21` [Compound 48] is at most 100 nM; for `CNCc1cc2c(=O)[nH]ncc2n1CCOCCC(=O)N1CCN(c2ncc(C(F)(F)F)cn2)CC1` [Compound 49] it is 100 to 1000 nM; for `O=C(CCOCCn1ncc2c(=O)[nH]ncc21)N1CCN(c2ncc(C(F)(F)F)cn2)CC1` [Compound 50, 1-(2-(3-oxo-3-(4-(5-(trifluoromethyl)pyrimidin-2-yl)piperazin-1-yl)propoxy)ethyl)-1,5-dihydro-4H-pyrazolo[3,4-d]pyridazin-4-one] it is at most 100 nM.
In the case of `O=C(CCOCCn1cnc2c(=O)[nH]ncc21)N1CCN(c2ncc(C(F)(F)F)cn2)CC1` [Compound 51], the half-maximal inhibitory concentration (IC50) was 100 to 1000 nM.
The figure for `O=C(CCOCCc1cccc2c(=O)[nH]nnc12)N1CCN(c2ncc(C(F)(F)F)cn2)CC1` [Compound 52] is 100 to 1000 nM; for `O=C(CCOCCn1ccc2c(=O)[nH]cnc21)N1CCN(c2ncc(C(F)(F)F)cn2)CC1` [Compound 53] it is 100 to 1000 nM.
The figure for `O=C1NCc2c(CCOCCC(=O)N3CCN(c4ncc(C(F)(F)F)cn4)CC3)cccc21` [Compound 54] is 100 to 1000 nM; for `CN1CCN(CCOCCC(=O)N2CCN(c3ncc(C(F)(F)F)cn3)CC2)c2cn[nH]c(=O)c21` [Compound 55] it is at most 100 nM.
Consider `O=C1NCCc2c1ccn2CCOCCC(=O)N1CCN(c2ncc(C(F)(F)F)cn2)CC1` [Compound 56], for which the concentration for half-maximal inhibition (IC50) is 1000 to 10000 nM.
As to `N#Cc1ccc(N2CCN(C(=O)c3cccc(Cc4cc(Cl)cc5c(=O)[nH]ncc45)c3)CC2)nc1` [Compound 57], the IC50 is at most 100 nM.
With `O=C(NCCOc1cccc2c(=O)[nH]ncc12)N1CCN(c2ncc(C(F)(F)F)cn2)CC1` [Compound 58], the IC50 was in the range of 100 to 1000 nM.
Next, `CCc1cc2c(=O)[nH]ncc2n1CCOCCC(=O)N1CCN(c2ncc(C(F)(F)F)cn2)CC1` [Compound 59]: 100 to 1000 nM.
Take `O=C(CCOCCn1c(C(F)(F)F)cc2c(=O)[nH]ncc21)N1CCN(c2ncc(C(F)(F)F)cn2)CC1` [Compound 60, 1-(2-(3-oxo-3-(4-(5-(trifluoromethyl)pyrimidin-2-yl)piperazin-1-yl)propoxy)ethyl)-2-(trifluoromethyl)-1,5-dihydro-4H-pyrrolo[2,3-d]pyridazin-4-one]: the IC50 is at most 100 nM.
As for `O=C(CCNCCN1CCCc2c1cn[nH]c2=O)N1CCN(c2ncc(C(F)(F)F)cn2)CC1` [Compound 61], the IC50 lay within 100 to 1000 nM.
On to `CC(COCCC(=O)N1CCN(c2ccc(C#N)cn2)CC1)N1CCCc2c1cn[nH]c2=O` (centres unmarked) [Compound 62], for which the half-inhibitory concentration (IC50) was in the range of 100 to 1000 nM.
On to `CC(COCCC(=O)N1CCN(c2ncc(C(F)(F)F)cn2)CC1)N1CCCc2c1cn[nH]c2=O` (centres unmarked) [Compound 63], for which the IC50 was at most 100 nM.
Regarding `N#Cc1ccc(N2CCN(C(=O)c3cccc(Cc4cccc5c4C(=O)NC5=O)c3)CC2)nc1` [Compound 66], the IC50 lay within 100 to 1000 nM.
As to `N#Cc1ccc(N2CCN(C(=O)CCOCCc3cccc4c(=O)[nH]ncc34)CC2)nc1` [Compound 67], the IC50 was at most 100 nM.
For `N#Cc1ccc(N2CCN(C(=O)CCOCCc3cc(C(F)(F)F)cc4c(=O)[nH]ncc34)CC2)nc1` [Compound 68], the IC50 is 100 to 1000 nM.
For the molecule `O=C(CCOCCc1cc(C(F)(F)F)cc2c(=O)[nH]ncc12)N1CCN(c2ncc(C(F)(F)F)cn2)CC1` [Compound 69], the half-inhibitory concentration (IC50) was 100 to 1000 nM.
Turning to `CC(COCCC(=O)N1CCN(c2ccc(C#N)cn2)CC1)c1cccc2c(=O)[nH]ncc12` (centres unmarked) [Compound 70], the half-inhibitory concentration (IC50) is 1000 to 10000 nM.
Consider `Cc1cn(CCOCCC(=O)N2CCN(c3ncc(C(F)(F)F)cn3)CC2)c2cn[nH]c(=O)c12` [Compound 74, 3-methyl-1-(2-(3-oxo-3-(4-(5-(trifluoromethyl)pyrimidin-2-yl)piperazin-1-yl)propoxy)ethyl)-1,5-dihydro-4H-pyrrolo[2,3-d]pyridazin-4-one], for which the 50% inhibitory concentration (IC50) was at most 100 nM.
On to `CC(COCCC(=O)N1CCN(c2ncc(C(F)(F)F)cn2)CC1)n1ccc2c(=O)[nH]ncc21` (centres unmarked) [Compound 75], for which the IC50 is at most 100 nM.
Regarding `CC(COCCC(=O)N1CCN(c2ncc(C(F)(F)F)cn2)CC1)n1ccc2c(=O)[nH]ncc21` (centres unmarked) [Compound 76], the IC50 fell in the range of 100 to 1000 nM.
Next, `Cc1cc2c(=O)[nH]ncc2n1CCOCCC(=O)N1CCN(c2ncc(C(F)(F)F)cn2)CC1` [Compound 77]: at most 100 nM; `N#Cc1ccc(N2CCN(C(=O)CCOCCn3c(C(F)(F)F)cc4c(=O)[nH]ncc43)CC2)nc1` [Compound 78]: 100 to 1000 nM.
Next, `N#Cc1ccc(N2CCN(C(=O)CCOCCc3cc(Cl)cc4c(=O)[nH]ncc34)CC2)nc1` [Compound 79]: at most 100 nM; `O=C(CCOCCc1cc(Cl)cc2c(=O)[nH]ncc12)N1CCN(c2ncc(C(F)(F)F)cn2)CC1` [Compound 80, 7-chloro-5-(2-(3-oxo-3-(4-(5-(trifluoromethyl)pyrimidin-2-yl)piperazin-1-yl)propoxy)ethyl)phthalazin-1(2H)-one]: at most 100 nM.
Next, `N#Cc1ccc(N2CCN(C(=O)CCOCCc3cc(F)cc4c(=O)[nH]ncc34)CC2)nc1` [Compound 81]: at most 100 nM.

For the origin of these results see patent publication US20240217968A1, “PHARMACEUTICAL COMPOUND” (DUKE STREET BIO LIMITED, priority 2021, published 2024).
